Tests used:
[1] = test system: tobacco budworm (H. virescens); test: Feeding disruption assay, CryIAc in Trypan Blue diet (fresh diet); format: in vivo, Heliothis virescens
Description: The blue diet used in the feeding disruption bioassay is an agar based insect meal containing 20 mg of Trypan Blue (Direct Blue 14; Matheson Coleman & Bell, Norwood, Ohio) per 100 ml of standard artificial diet, and containing different concentrations of CryIAc (MVP, Mycogen). Larvae feeding on this colored diet produced blue feces which were easily distinguished by observation from feces derived from other food sources. Assays were conducted in 1-ounce clear plastic cups (Solo Cup Company, Urbana, Ill.; approximately […] in diameter and ¾ inches high) fitted with white cardboard tops, which are routinely used for insect rearing in the inventors' laboratories. The clear plastic allowed for the observation of blue feces without opening the container.
Third instars from Wake (Bt susceptible), YHD2 (Bt resistant), and YHD2×Wake hybrid strains of the tobacco budworm (H. virescens) were used. Instars weighed 30±5 mg and were reared either on standard artificial diet or cotton plants. Instars were starved for one hour and then transferred to clear plastic assay cups, one larvae per cup. The starvation treatment synchronized the beginning of feeding between individuals once transferred to the dye-containing diet. The effect of different concentrations of CryIAc (0 to 0.064 μg CryIAc/ml diet) on the production of blue feces was examined for one to 24 hours at 27±1° C. and […] (light:dark). Studies were conducted in triplicate with 15 larvae per replicate. Once a diagnostic concentration and optimum assay time were identified from these experiments, the accuracy of resistance detection was investigated for individual resistant and susceptible neonates of H. virescens. These experiments were duplicated for 25 resistant and 25 susceptible budworms from two different budworm generations.
The diagnostic concentration for resistance detection was also investigated for its ability to distinguish Wake susceptible H. virescens from H. zea. In addition, dose response studies were conducted to identify a concentration of Bt that would distinguish resistant YHD2 neonates of H. virescens from H. zea. Dose response studies were duplicated for 25 resistant (HD2) tobacco budworms and 25 bollworms from two generations at different doses of Bt ranging from 0 to 1000 μg CryIAc/ml of blue diet.

[2] = test system: H. virescens; test: Modified feeding disruption bioassay on MVP-hydrated meal pads, field strains; format: in vivo, Heliothis virescens; conditions: for percentage producing 0-2 fecal pellets over 24 h: 0.05 μg MVP per ml diet
Description: Trypan Blue (Direct Blue 14; Matheson Coleman and Bell, Norwood, Ohio) was blended with artificial diet, 20 mg dye per 100 ml diet. Blue diet aliquots were dispensed (100 μl per well) into 8-well microtiter plate strips (Nalge Nunc Int., Napersville, Ill.). The blue dye served as a marker of feeding on the assay diet, with larvae feeding on colored diet producing blue feces which were easily distinguished visually from feces derived from other food sources. Microtiter plate strips containing blue diet were frozen at −80° C. and lyophilized (Bench Top 6, Virtis, Gardiner, N.Y.; cold trap=−70° C., ˜200 mTorr, ambient temperature=23° C.) for a minimum of 24 h in order to form hydratable meal pads. Meal pads were stored in the dark in sealed plastic bags with desiccant prior to use.
Meal pads were hydrated with aqueous dilutions of the B. thuringiensis CryIAc δ-endotoxin formulation MVP (Mycogen, San Diego, Calif.) at least 1 h prior to the start of assays. Fresh diet aliquots (100 μl) consistently lost 78-84% of their water content by weight during the lyophilization process. Therefore, meal pads were hydrated with 80 μl of MVP in distilled water (treatments) or distilled water only (controls). The insecticide concentrations referenced throughout this paper are in μg MVP per ml of diet, i.e. the final concentration of insecticide in hydrated diet, which is 80% of the concentration of the solution used to hydrate the meal pads. Strip caps (Nunc) were cut into single caps in order to seal wells of the microtiter plate strips individually, which facilitated observation within wells while not allowing neighboring larvae to escape. In order to reduce condensation within the wells and provide larvae with air, caps were punctured twice with a #3 insect pin. Bioassays were conducted at 27±1° C. with a 14:10 (L:D) cycle, and blue fecal pellets were counted at 24 h. Neonates were used in all assays and were exposed to assay diets within 24 h of hatch. The results from each assay are taken from two replicates of each dose, with each replicate consisting of 24 larvae, one larva per well. Control (no dose) treatments were replicated three times. Dead larvae (defined as no movement for 30 s after prodding with a blunt probe) at the assay endpoint (24 h) were discarded and not included in the reported results. For each surviving larva, the number of fecal pellets produced was recorded. Serial dilutions of the MVP formulation were used for meal pad hydration, with separate dilution series prepared for each replicate.
Following 24 h exposure to diet containing a known concentration of MVP (Mycogen), a surviving larva was designated as a ‘feeder’ if it had produced more than two fecal pellets and as a ‘non-feeder’ otherwise. The cut-off value of two fecal pellets was adopted because this provided the clearest separation between species. Probit analyses were applied to the dichotomized fecal pellet counts in order to compare strains, between and within species, with respect to the feeding disruption response. A probit model was then used to relate the proportion of non-feeders to dose (on a log10 scale). Probit curves were fitted separately for each insect strain, and a NFC50 (non-feeding concentration50; log10 of the MVP concentration resulting in 50% non-feeders) and slope was obtained for H. zea. Also, probit curves were compared across species and among strains within species using PROC GENMOD with LINK=PROBIT (SAS 1993) on the data for all strains combined, and fitting effects for species, strains within species, log10 dose, as well as dose by species and dose by strain within species interactions.
Probit estimates of the proportion of feeders at the diagnostic concentration for each strain were used to predict the properties of an assay involving exposure of a small number, n, of larvae in individual wells for 24 h to diet containing a diagnostic concentration of the MVP formulation (final MVP concentration in diet 0.04 μg/ml). […]

[3] = Wake third instars, 0.008 μg/ml, 24 hours
[4] = Wake third instars, 0.032 μg CryIAc/ml diet, 24 hours
[5] = Wake third instars, 0.032 μg CryIAc/ml, 4 hours
[6] = Wake third instars, 0.032 μg CryIAc/ml, 8 hours
[7] = YHD2 third instars, 0.008 μg/ml, 24 hours
[8] = YHD2 third instars, 0.032 μg CryIAc/ml diet, 24 hours
[9] = YHD2 third instars, 0.032 μg CryIAc/ml, 4 hours
[10] = YHD2 third instars, 0.032 μg CryIAc/ml, 8 hours
[11] = YHD2×Wake hybrid third instars, 0.032 μg/ml, 24 hours

CryIAc: Bacillus thuringiensis CryIAc δ-endotoxin, commercial formulation MVP (Mycogen), >98.0% δ endotoxin
blue fecal pellets per larva [1, 3]: 4 /larva
total blue fecal pellets [1, 3]: 63 fecal pellets/15 larvae
blue fecal pellets per larva [1, 4]: 0.8 /larva
total blue fecal pellets [1, 4]: 12 fecal pellets/15 larvae
blue fecal pellets per larva [1, 5]: 0.1 /larva
total blue fecal pellets [1, 5]: 1.6 fecal pellets/15 larvae
blue fecal pellets per larva [1, 6]: 0.3 /larva
total blue fecal pellets [1, 6]: 5 fecal pellets/15 larvae
percentage of larvae that had produced blue feces ([1]; Wake third instars, 0.032 μg CryIAc/ml, after 14 hours, ±1 SE): 2.2±3.9%
minimum fecal production by any individual ([1]; YHD2 neonates, 500 μg CryIAc/ml blue diet, 24 hours): five
fecal pellets produced per 15 larvae ([1]; YHD2 third instars reared on cotton, 0.032 μg CryIAc/ml Blue diet, 24 hours): > 140 fecal pellets per 15 larvae
blue fecal pellets per larva [1, 7]: 53 /larva
total blue fecal pellets [1, 7]: 800 fecal pellets/15 larvae
blue fecal pellets per larva [1, 8]: 31 /larva
total blue fecal pellets [1, 8]: 470 fecal pellets/15 larvae
blue fecal pellets per larva [1, 9]: 3 /larva
total blue fecal pellets [1, 9]: 46 fecal pellets/15 larvae
blue fecal pellets per larva [1, 10]: 9 /larva
total blue fecal pellets [1, 10]: 129 fecal pellets/15 larvae
percentage producing one or more blue fecal pellets ([1]; YHD2 third instars, 0.032 μg CryIAc/ml, in 5 hours, ±1 SE): 85±3.9%
percentage producing one or more blue fecal pellets ([1]; YHD2 third instars, 0.032 μg CryIAc/ml, in 9 hours, ±1 SE): 95±3.9%
percentage producing one or more blue fecal pellets ([1]; YHD2 third instars, 0.032 μg CryIAc/ml, in 14 hours, ±1 SE): 100.0±0.0%
blue fecal pellets per larva [1, 11]: 5 /larva
total blue fecal pellets [1, 11]: 68 fecal pellets/15 larvae
percentage producing 0-2 fecal pellets in 24 h ([1]; laboratory susceptible H. virescens strain, 0.032 μg MVP per ml diet): 88.0%
number of H. virescens producing six blue fecal pellets (the maximum) ([1]; susceptible (Wake) neonates, 0.032 μg CryIAc/ml diet, 24 hour): 1 out of 50
blue feces production ([1]; susceptible (Wake) third instars reared on cotton, 0.032 μg CryIAc/ml Blue diet): Essentially no blue feces were produced
percentage of insects producing >10 fecal pellets ([2]; H. virescens field strains pooled, 0.04 μg MVP per ml diet, 24 h): < 1%
ps, probability of a larva being a feeder, most conservative probit estimate ([2]; H. virescens strains, diagnostic concentration 0.04 μg/ml, 24 h): 0.02
percentage producing 0-2 fecal pellets over 24 h ([2]; Hv Franklin neonates): 100%
feeding response (>2 fecal pellets) ([2]; Hv Franklin, 0.04 μg MVP per ml diet, 24 h): 2.1%
percentage producing 0-2 fecal pellets over 24 h ([2]; Hv Johnston neonates): 95.5%
ps, feeding probability ([2]; Hv Quitman (south Georgia), 0.04 μg MVP per ml diet, 24 h): 0.15
percentage producing >5 fecal pellets ([2]; Hv Quitman neonates, 0.04 μg MVP per ml diet, 24 h): 2.2%
percentage producing 0-2 fecal pellets over 24 h ([2]; Hv Quitman neonates): 95.5%
feeding response (>2 fecal pellets) ([2]; Hv Quitman, 0.04 μg MVP per ml diet, 24 h): 14.9%
percentage producing >5 fecal pellets ([2]; Hv Washington neonates, 0.04 μg MVP per ml diet, 24 h): 4.3%
percentage producing 0-2 fecal pellets over 24 h ([2]; Hv Washington neonates): 97.7%
fecal pellets produced per larva (none observed above) ([2]; all H. virescens field strains, 0.04 μg MVP per ml diet, 24 h): ≤ 11 fecal pellets
